# Experimental data: US20210382058A1, “PATIENT SELECTION FOR TREATMENT OF MYC POSITIVE CANCERS WITH INDENOISOQUINOLINES” (Purdue Research Foundation, priority 2020, published 2021)
# Where two headings read alike, the source gives them in different places.
# Columns and labels:
# [1] = target: T1, human topoisomerase I (Homo sapiens, UniProt P11387); conditions: relative topoisomerase I inhibition levels, previously determined, six levels (0 - 5, +++++ = 5); cited from earlier work
# T1 sequence (P11387 1-765): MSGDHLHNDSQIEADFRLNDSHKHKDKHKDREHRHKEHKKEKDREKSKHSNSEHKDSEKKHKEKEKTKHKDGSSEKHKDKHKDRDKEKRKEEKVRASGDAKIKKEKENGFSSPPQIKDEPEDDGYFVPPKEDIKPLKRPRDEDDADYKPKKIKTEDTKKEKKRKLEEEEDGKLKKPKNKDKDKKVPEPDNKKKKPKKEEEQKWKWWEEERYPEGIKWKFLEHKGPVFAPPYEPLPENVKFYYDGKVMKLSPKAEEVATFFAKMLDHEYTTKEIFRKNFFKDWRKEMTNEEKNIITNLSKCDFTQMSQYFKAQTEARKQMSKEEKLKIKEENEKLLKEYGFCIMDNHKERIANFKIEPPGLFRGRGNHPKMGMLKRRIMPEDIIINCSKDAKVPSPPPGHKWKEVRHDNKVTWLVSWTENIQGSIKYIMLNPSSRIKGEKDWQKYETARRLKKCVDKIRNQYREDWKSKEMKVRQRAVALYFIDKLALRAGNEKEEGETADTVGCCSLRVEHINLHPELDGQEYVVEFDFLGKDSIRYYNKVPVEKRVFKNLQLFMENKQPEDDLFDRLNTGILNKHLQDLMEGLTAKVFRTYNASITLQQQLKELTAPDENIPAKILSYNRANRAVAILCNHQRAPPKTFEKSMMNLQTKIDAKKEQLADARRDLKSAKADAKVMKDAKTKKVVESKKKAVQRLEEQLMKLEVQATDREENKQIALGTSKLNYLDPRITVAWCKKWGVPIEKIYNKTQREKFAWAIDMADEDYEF
# [2] = tested on: MYC protein expression in MCF-7 breast cancer cells; assay: Western blotting of MYC protein level in MCF-7 cells; format: cell-based, human; conditions: Homo sapiens, MCF7; western blotting, MCF-7 cells, 0.5, 1, 2, and 4 μM, 24 hours; read-out: MYC Inhibition
# Outline: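 Immunoblotting with ECL detection quantified MYC, with GAPDH (1:2000) as reference and anti-MYC at 1:1000.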
# [3] = tested on: NCI-60 cancer cell lines; assay: NCI-60 cancer cell line drug screen (GI50, MGM); format: cell-based, human; conditions: Homo sapiens; for GI50: read-out: Antiproliferative Activities [GI50 (μM)]; for mean GI50 across NCI-60 panel (MGM): average of GI50 values across the entire panel of NCI-60 cancer cell lines
# Protocol: Cancer cells were incubated with the test compounds at five concentrations ranging from 100 μM to 10 nM for 48 h. […] The approximate average of GI50 values across the entire panel of NCI-60 cancer cell lines for each compound was recorded as the MGM value.
# [4] = A549, Non-Small Cell Lung Cancer, A549/ATCC
# [5] = COLO 205, Colon Cancer, COLO 205
# [6] = DU-145, Prostate Cancer, DU-145
# [7] = HCC 2998, Colon Cancer, HCC-2998
# [8] = HOP-62, Non-Small Cell Lung Cancer, HOP-62
# [9] = HOP-92, Non-Small Cell Lung Cancer, HOP-92
# [10] = MDA-MB-231, Breast Cancer, MDA-MB-231/ATCC
# [11] = MDA-MB-435, Melanoma, MDA-MB-435
# [12] = NCI-H23, Non-Small Cell Lung Cancer, NCI-H23
# [13] = NCI-H226, Non-Small Cell Lung Cancer, NCI-H226
# [14] = NCI-H322M, Non-Small Cell Lung Cancer, NCI-H322M
# [15] = NCI-H460, Non-Small Cell Lung Cancer, NCI-H460
# [16] = NCI-H522, Non-Small Cell Lung Cancer, NCI-H522
# [17] = OVCAR-3, Ovarian Cancer, OVCAR-3
# [18] = OVCAR-4, Ovarian Cancer, OVCAR-4
# [19] = OVCAR-5, Ovarian Cancer, OVCAR-5
# [20] = OVCAR-8, Ovarian Cancer, OVCAR-8
# [21] = SK-OV-3, Ovarian Cancer, SK-OV-3
smiles,measurement,setting,value
COc1ccc2c(c1)C(=O)c1c-2n(CCCN2CCOCC2)c(=O)c2ccccc12 [Compound 19],Top1 Inhibiton,[1],"+++ (strong inhibition, +++, MYC expression inhibited at 0.5 to 1.0 μM)"
same,minimal effective concentration,[2],2 µM
same,GI50,"[3]; 786-0, Renal Cancer, 786-0",1.78 µM
same,GI50,"[3]; A498, Renal Cancer, A498",1.64 µM
same,GI50,[3]; [4],1.96 µM
same,GI50,"[3]; ACHN, Renal Cancer, ACHN",1.67 µM
same,GI50,"[3]; BT-549, Breast Cancer, BT-549",4.11 µM
same,GI50,"[3]; CAKI-1, Renal Cancer, CAKI-1",3.17 µM
same,GI50,"[3]; CCRF-CEM, Leukemia, CCRF-CEM",1.57 µM
same,GI50,[3]; [5],1.74 µM
same,GI50,[3]; [6],2.31 µM
same,GI50,"[3]; EKVX, Non-Small Cell Lung Cancer, EKVX",4.91 µM
same,GI50,[3]; [7],3.44 µM
same,GI50,"[3]; HCT-15, Colon Cancer, HCT-15",2.9 µM
same,GI50,"[3]; HCT-116, Colon Cancer, HCT-116",1.27 µM
same,GI50,"[3]; HL-60, Leukemia, HL-60(TB)",4.28 µM
same,GI50,[3]; [8],1.41 µM
same,GI50,[3]; [9],4.47 µM
same,GI50,"[3]; HT-29, Colon Cancer, HT29",2.48 µM
same,GI50,"[3]; Hs-578T, Breast Cancer, HS 578T",8.95 µM
same,GI50,"[3]; K562, Leukemia, K-562",5.13 µM
same,GI50,"[3]; KM12, Colon Cancer, KM12",3.8 µM
same,GI50,"[3]; LOX IMVI, Melanoma, LOX IMVI",1.34 µM
same,GI50,"[3]; Leukemia, SR",0.29 µM
same,GI50,"[3]; MCF7, Breast Cancer, MCF7",0.2 µM
same,GI50,[3]; [10],11.2 µM
same,GI50,[3]; [11],4.67 µM
same,GI50,"[3]; MOLT-4, Leukemia, MOLT-4",0.87 µM
same,GI50,"[3]; Malme-3M, Melanoma, MALME-3M",4.49 µM
same,GI50,"[3]; Melanoma, M14",2.85 µM
same,GI50,[3]; [12],3.1 µM
same,GI50,[3]; [13],2.79 µM
same,GI50,[3]; [14],5.44 µM
same,GI50,[3]; [15],0.44 µM
same,GI50,[3]; [16],1.06 µM
same,GI50,[3]; [17],2.7 µM
same,GI50,[3]; [18],3.13 µM
same,GI50,[3]; [19],6.31 µM
same,GI50,[3]; [20],3.11 µM
same,GI50,"[3]; Ovarian Cancer, NCl/ADR-RES",3.14 µM
same,GI50,"[3]; Prostate Cancer, PC-3",19.5 µM
same,GI50,"[3]; RPMI-8226, Leukemia, RPMI-8226",1.85 µM
same,GI50,"[3]; RXF 393, Renal Cancer, RXF 393",7.16 µM
same,GI50,"[3]; Renal Cancer, U0-31",0.42 µM
same,GI50,"[3]; SF-268, CNS Cancer, SF-268",1.75 µM
same,GI50,"[3]; SF-295, CNS Cancer, SF-295",1.27 µM
same,GI50,"[3]; SF-539, CNS Cancer, SF-539",1.96 µM
same,GI50,"[3]; SK-MEL-2, Melanoma, SK-MEL-2",19.5 µM
same,GI50,"[3]; SK-MEL-5, Melanoma, SK-MEL-5",1.5 µM
same,GI50,"[3]; SK-MEL-28, Melanoma, SK-MEL-28",8.03 µM
same,GI50,[3]; [21],2.67 µM
same,GI50,"[3]; SN12C, Renal Cancer, SN12C",4.1 µM
same,GI50,"[3]; SNB-19, CNS Cancer, SNB-19",2.13 µM
same,GI50,"[3]; SNB-75, CNS Cancer, SNB-75",3.63 µM
same,GI50,"[3]; SW-620, Colon Cancer, SW-620",1.68 µM
same,GI50,"[3]; T47D, Breast Cancer, T-47D",1.07 µM
same,GI50,"[3]; TK-10, Renal Cancer, TK-10",4.63 µM
same,GI50,"[3]; U-251, CNS Cancer, U251",1.72 µM
same,GI50,"[3]; UACC-62, Melanoma, UACC-62",1.58 µM
same,GI50,"[3]; UACC-257, Melanoma, UACC-257",6.6 µM
same,mean GI50 across NCI-60 panel (MGM),[3],2570 nM
COc1cc2c(cc1O)-c1c(c3ccc([N+](=O)[O-])cc3c(=O)n1CCCN)C2=O [Compound 38],Top1 Inhibiton,[1],"++ (medium inhibition, ++, MYC expression inhibited at 2.0 μM, or no clear dose-dependent MYC inhibition)"
same,minimal effective concentration,[2],4 µM
same,GI50,"[3]; 786-0, Renal Cancer, 786-0",0.34 µM
same,GI50,"[3]; A498, Renal Cancer, A498",0.96 µM
same,GI50,[3]; [4],1.31 µM
same,GI50,"[3]; ACHN, Renal Cancer, ACHN",0.28 µM
same,GI50,"[3]; BT-549, Breast Cancer, BT-549",0.36 µM
same,GI50,"[3]; CAKI-1, Renal Cancer, CAKI-1",0.29 µM
same,GI50,"[3]; CCRF-CEM, Leukemia, CCRF-CEM",0.11 µM
same,GI50,[3]; [5],0.69 µM
same,GI50,[3]; [6],0.43 µM
same,GI50,[3]; [7],0.62 µM
same,GI50,"[3]; HCT-15, Colon Cancer, HCT-15",1.49 µM
same,GI50,"[3]; HCT-116, Colon Cancer, HCT-116",0.15 µM
same,GI50,"[3]; HL-60, Leukemia, HL-60(TB)",1.48 µM
same,GI50,[3]; [8],0.46 µM
same,GI50,[3]; [9],1.34 µM
same,GI50,"[3]; HT-29, Colon Cancer, HT29",0.48 µM
same,GI50,"[3]; IGROV-1, Ovarian Cancer, IGROV1",1.24 µM
same,GI50,"[3]; K562, Leukemia, K-562",0.77 µM
same,GI50,"[3]; KM12, Colon Cancer, KM12",1.34 µM
same,GI50,"[3]; LOX IMVI, Melanoma, LOX IMVI",0.3 µM
same,GI50,"[3]; Leukemia, SR",0.04 µM
same,GI50,"[3]; MCF7, Breast Cancer, MCF7",0.16 µM
same,GI50,[3]; [10],1.57 µM
same,GI50,[3]; [11],1.3 µM
same,GI50,"[3]; MDA-MB-468, Breast Cancer, MDA-MB-468",0.24 µM
same,GI50,"[3]; MOLT-4, Leukemia, MOLT-4",0.15 µM
same,GI50,"[3]; Malme-3M, Melanoma, MALME-3M",2.16 µM
same,GI50,"[3]; Melanoma, M14",0.46 µM
same,GI50,[3]; [12],0.38 µM
same,GI50,[3]; [13],1.18 µM
same,GI50,[3]; [14],1.39 µM
same,GI50,[3]; [15],0.37 µM
same,GI50,[3]; [16],0.78 µM
same,GI50,[3]; [17],1.69 µM
same,GI50,[3]; [18],1.11 µM
same,GI50,[3]; [19],1.67 µM
same,GI50,[3]; [20],1.01 µM
same,GI50,"[3]; Ovarian Cancer, NCl/ADR-RES",2.55 µM
same,GI50,"[3]; Prostate Cancer, PC-3",0.64 µM
same,GI50,"[3]; RPMI-8226, Leukemia, RPMI-8226",1.02 µM
same,GI50,"[3]; RXF 393, Renal Cancer, RXF 393",1.13 µM
same,GI50,"[3]; Renal Cancer, U0-31",0.69 µM
same,GI50,"[3]; SF-268, CNS Cancer, SF-268",0.55 µM
same,GI50,"[3]; SF-295, CNS Cancer, SF-295",0.28 µM
same,GI50,"[3]; SF-539, CNS Cancer, SF-539",0.67 µM
same,GI50,"[3]; SK-MEL-2, Melanoma, SK-MEL-2",2.18 µM
same,GI50,"[3]; SK-MEL-5, Melanoma, SK-MEL-5",1.26 µM
same,GI50,"[3]; SK-MEL-28, Melanoma, SK-MEL-28",1.88 µM
same,GI50,[3]; [21],1.15 µM
same,GI50,"[3]; SN12C, Renal Cancer, SN12C",0.45 µM
same,GI50,"[3]; SNB-19, CNS Cancer, SNB-19",1.08 µM
same,GI50,"[3]; SNB-75, CNS Cancer, SNB-75",0.16 µM
same,GI50,"[3]; SW-620, Colon Cancer, SW-620",0.34 µM
same,GI50,"[3]; T47D, Breast Cancer, T-47D",0.7 µM
same,GI50,"[3]; TK-10, Renal Cancer, TK-10",1.85 µM
same,GI50,"[3]; U-251, CNS Cancer, U251",0.33 µM
same,GI50,"[3]; UACC-62, Melanoma, UACC-62",0.95 µM
same,GI50,"[3]; UACC-257, Melanoma, UACC-257",1.57 µM
same,mean GI50 across NCI-60 panel (MGM),[3],660 nM
